Series [1] is described as follows: Balb/C mouse pharmacokinetics, oral 5 mg/kg. Format: in vivo, Balb/C mice. The note with it: male, p.o. 5 mg/kg, plasma; for MRT: read-out: Average residence time MRT; for Cmax: read-out: Blood concentration Cmax; for AUC(0-t): read-out: Curve area AUC0-t; for AUC(0-inf): read-out: Curve area AUC0-∞; for half-life: read-out: Half-life t1/2 (converted); for Tmax: read-out: Peak time tmax. An outline of the steps: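 Male Balb/C mice (6 per compound) were fasted overnight and dosed in 0.5% CMC-Na (1% Tween80) solution or suspension. EDTA-K2 plasma was sampled at 0, 0.5, 1, 2, 4, 6, 8 and 24 h. Compound levels were measured by LC/MS/MS after acetonitrile precipitation, and PK parameters were derived from the plasma profiles.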

A further series addresses T1, KDR kinase (Homo sapiens, UniProt P35968).
T1 construct: purchased Carna 08-191
The experiment in a line: HTRF kinase activity inhibition, KDR. Format: biochemical. The note with it: for IC50: HTRF, ATP at Km; for Ratio (KDR/RET): KDR IC50 / RET IC50. The procedure, abridged: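 Inhibition of KDR kinase activity measured by homogeneous time-resolved fluorescence with a tyrosine-kinase KinEASE substrate kit and ATP.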
(TR-FRET usually uses a lanthanide donor and a delayed reading to cut background.)

Series [2] deals with subcutaneous transplanted tumor of Ba/F3 KIF5B-RET cells. The experiment in a line: Tumor suppression on Ba/F3 KIF5B-RET transplanted tumor model. Type of series: in vivo, BALB/c nude mice. Here is the method: Ba/F3 KIF5B-RET cells were removed from the cell bank, resuscitated and added to RPMI1640 medium (RPMI1640+10% FBS+1% Glu+1% P/S), then cultured in a CO2 incubator (incubator temperature was 37° C., CO2 concentration was 5%), and when the cell number expanded to the required number for in vivo inoculation, Ba/F3 KIF5B-RET cells were collected. The cells were counted with an automatic cell counter, resuspended with PBS according to the count results, made into a cell suspension (density was 2×10^7/mL), and placed in an ice box for use.
Female BALB/c nude mice aged 6-8 weeks were used, weighing about 18-22 g. Mice were reared in SPF animal room, and were reared in a single cage with 5 mice in each cage. All cages, bedding and water were sterilized at high temperature before use, and all animals were allowed to eat and drink freely. Nude mice were labeled with disposable universal ear tags for mice and rats before the start of the experiment, and the skin of the inoculation site was disinfected with 75% medical alcohol before inoculation. 0.1 mL (containing 2*10^6 cells) of Ba/F3 KIF5B-RET cells were inoculated subcutaneously on the right back of each mouse. Group administration was initiated when the tumor volume reached 60-200 mm^3, with 5 mice in each group. Each test compound was administered orally twice a day for 14 days. The tumor volume and the weight of mice were measured twice a week, and the tumor TGI (%) was calculated.
The tumor volume (mm^3) was calculated as V=0.5*D*d*d, where D and d were the long and short diameters of the tumor, respectively.
When there was no tumor regression, TGI (%)=[(1-(mean tumor volume at the end of the administration in a treatment group−mean tumor volume at the start of administration in the treatment group))/(mean tumor volume at the end of treatment in the solvent control group−mean tumor volume at the start of treatment in the solvent control group)]×100%.
When there was tumor regression, TGI (%)=[1-(mean tumor volume at the end of administration in a treatment group−mean tumor volume at the beginning of administration in the treatment group)/mean tumor volume at the beginning of administration in the treatment group]×100%.

In another series the target is T2, RET kinase (Homo sapiens, UniProt P07949).
T2 construct: purchased Carna 08-159
Nature of the series: HTRF kinase activity inhibition, RET wild-type. The note with it: ATP at Km. Format: biochemical. The procedure, abridged:
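HTRF (KinEASE-TK) kinase assay with recombinant RET wild-type, RET V804M, RET V804L and KIF5B-RET enzymes plus ATP.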

Series [3] has as its system TT cells (MTC, RET C634W). Nature of the series: Inhibition of proliferation of TT cells (CellTiter-Glo, 72 h). The note with it: Homo sapiens. Type of series: cell-based. The procedure, abridged: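 TT cells seeded overnight, then exposed to compound dilutions for 72 h at 37 °C, 5% CO2, with a solvent control. Viability read by CellTiter-Glo luminescence; IC50 from nonlinear regression of inhibition rate versus concentration.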

The target of the next series is T3, Ba/F3 KIF5B-RET cells (Homo sapiens, UniProt P07949).
T3 construct: fused on or other part: P33176 (Kinesin-1 heavy chain)
The experiment in a line: Inhibition of proliferation of Ba/F3 KIF5B-RET cells (CellTiter-Glo). Format: cell-based. The note with it: 72 to 144 hours. The procedure, abridged: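 Cells plated overnight, then exposed to compound dilutions in DMSO/medium at 37° C, 5% CO2 for 72 to 144 hours. Viability read by CellTiter-Glo luminescence; IC50 from inhibition rates fitted by nonlinear regression.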
(In general: In ATP-based viability assays light output follows the ATP content of the culture.)

The next series has as its target T4, RET M918T (Homo sapiens, UniProt P07949, M918T).
T4 construct: purchased Carna 08-508
The experiment in a line: HTRF kinase activity inhibition, RET M918T. Type of series: biochemical. As to conditions: ATP at Km. The text has this: 2.2 Experimental Reagents: • RET enzyme was purchased from Carna Company, and the article number was 08-159; • RET M918T enzyme was purchased from Carna Company, and the article number was 08-508; • KIF5B-RET was purchased from SignalChem Company, the article number was R02-19FG-05; • CCDC6-RET was purchased from SignalChem Company, the article number was R02-19BG-05; • RET V804M enzyme was purchased from Thermofisher Company, and the article number was PV6223; • RET V804L enzyme was purchased from Thermofisher Company, and the article number was PV4397; • HTRF KinEASE-TK kit was purchased from Cisbio Company, and the article number was 62TK0PEC; • ATP was purchased from Thermofisher Company, and the article number was PV3227; • 384-well plate was purchased from PerkinElmer Company, and the article number was 6007290.
In this experiment, a homogeneous time-resolved fluorescence (HTRF) method was used for the detection of compounds on RET kinase activity.

The values that follow come from US20230406865A1, “CRYSTAL FORM OF FREE BASE OF INHIBITOR CONTAINING BICYCLIC RING DERIVATIVE AND PREPARATION METHOD AND APPLICATION OF CRYSTAL FORM” (SHANGHAI HANSOH BIOMEDICAL CO., LTD., priority 2020, published 2023).

As usually defined, the MRT is a mean duration of stay, worked out from the concentration-time curve. Usually Tmax stands for the time from dosing to the highest level. The IC50 is the midpoint of a concentration-inhibition curve.

T3 sequence (P07949 whole entry, change not shown, the tested form may be a part): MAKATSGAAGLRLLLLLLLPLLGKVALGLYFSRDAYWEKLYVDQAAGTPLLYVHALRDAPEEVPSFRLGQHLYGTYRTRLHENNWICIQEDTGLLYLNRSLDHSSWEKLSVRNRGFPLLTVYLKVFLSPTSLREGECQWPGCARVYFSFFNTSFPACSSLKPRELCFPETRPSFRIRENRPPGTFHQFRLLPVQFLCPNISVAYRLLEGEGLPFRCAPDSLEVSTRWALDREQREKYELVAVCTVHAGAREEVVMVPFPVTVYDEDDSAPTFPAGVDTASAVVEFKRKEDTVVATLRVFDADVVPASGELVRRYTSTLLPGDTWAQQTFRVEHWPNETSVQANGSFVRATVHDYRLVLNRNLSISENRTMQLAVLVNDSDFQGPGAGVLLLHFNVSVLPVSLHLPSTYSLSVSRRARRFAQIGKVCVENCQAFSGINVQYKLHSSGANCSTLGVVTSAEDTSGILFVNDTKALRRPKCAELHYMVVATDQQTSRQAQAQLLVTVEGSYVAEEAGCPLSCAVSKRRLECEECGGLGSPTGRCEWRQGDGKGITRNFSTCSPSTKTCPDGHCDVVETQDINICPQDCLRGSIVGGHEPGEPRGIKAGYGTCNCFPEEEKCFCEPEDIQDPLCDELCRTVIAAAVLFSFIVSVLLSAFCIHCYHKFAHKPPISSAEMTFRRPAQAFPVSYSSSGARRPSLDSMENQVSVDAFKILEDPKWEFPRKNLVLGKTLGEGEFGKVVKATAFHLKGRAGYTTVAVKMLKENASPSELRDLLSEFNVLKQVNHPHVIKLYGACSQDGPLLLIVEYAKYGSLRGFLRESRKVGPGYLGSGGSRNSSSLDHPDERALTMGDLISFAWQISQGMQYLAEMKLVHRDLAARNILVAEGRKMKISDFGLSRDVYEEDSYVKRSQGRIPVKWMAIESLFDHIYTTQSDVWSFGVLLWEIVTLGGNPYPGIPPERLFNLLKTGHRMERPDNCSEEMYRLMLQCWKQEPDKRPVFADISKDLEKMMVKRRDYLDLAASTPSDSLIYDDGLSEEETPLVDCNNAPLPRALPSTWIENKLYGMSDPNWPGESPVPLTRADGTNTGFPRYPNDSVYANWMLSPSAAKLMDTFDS
T2 sequence (P07949 29-1114): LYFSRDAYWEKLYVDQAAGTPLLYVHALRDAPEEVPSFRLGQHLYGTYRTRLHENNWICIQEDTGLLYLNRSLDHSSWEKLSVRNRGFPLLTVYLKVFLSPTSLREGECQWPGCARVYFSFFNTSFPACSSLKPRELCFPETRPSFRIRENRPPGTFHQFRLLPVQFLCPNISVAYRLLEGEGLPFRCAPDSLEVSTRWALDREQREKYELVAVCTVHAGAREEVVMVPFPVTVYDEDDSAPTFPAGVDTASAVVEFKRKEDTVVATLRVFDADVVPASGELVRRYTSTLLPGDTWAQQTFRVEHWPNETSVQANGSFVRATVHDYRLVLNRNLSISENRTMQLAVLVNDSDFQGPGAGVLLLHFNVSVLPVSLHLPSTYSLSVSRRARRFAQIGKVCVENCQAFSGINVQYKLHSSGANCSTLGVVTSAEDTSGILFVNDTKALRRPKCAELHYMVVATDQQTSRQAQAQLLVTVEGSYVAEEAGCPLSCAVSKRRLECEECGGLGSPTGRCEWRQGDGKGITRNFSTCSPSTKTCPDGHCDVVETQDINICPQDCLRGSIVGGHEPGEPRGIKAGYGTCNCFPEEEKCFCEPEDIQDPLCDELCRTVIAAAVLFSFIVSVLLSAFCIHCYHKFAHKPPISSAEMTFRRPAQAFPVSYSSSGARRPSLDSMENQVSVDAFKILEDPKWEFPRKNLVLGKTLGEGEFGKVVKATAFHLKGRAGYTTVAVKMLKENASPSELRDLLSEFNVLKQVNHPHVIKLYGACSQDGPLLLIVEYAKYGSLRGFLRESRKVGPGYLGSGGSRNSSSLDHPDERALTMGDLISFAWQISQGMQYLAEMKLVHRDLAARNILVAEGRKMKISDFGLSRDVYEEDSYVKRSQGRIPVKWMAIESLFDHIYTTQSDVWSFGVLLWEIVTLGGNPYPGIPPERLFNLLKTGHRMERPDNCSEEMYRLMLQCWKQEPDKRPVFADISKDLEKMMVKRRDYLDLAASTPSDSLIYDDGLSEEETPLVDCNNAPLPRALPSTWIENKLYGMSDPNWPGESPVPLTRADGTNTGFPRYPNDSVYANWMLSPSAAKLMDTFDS
T4 sequence (P07949 29-1114 M918T): as the sequence (P07949 29-1114) above, with M890T counted along it
T1 sequence (P35968 20-1356): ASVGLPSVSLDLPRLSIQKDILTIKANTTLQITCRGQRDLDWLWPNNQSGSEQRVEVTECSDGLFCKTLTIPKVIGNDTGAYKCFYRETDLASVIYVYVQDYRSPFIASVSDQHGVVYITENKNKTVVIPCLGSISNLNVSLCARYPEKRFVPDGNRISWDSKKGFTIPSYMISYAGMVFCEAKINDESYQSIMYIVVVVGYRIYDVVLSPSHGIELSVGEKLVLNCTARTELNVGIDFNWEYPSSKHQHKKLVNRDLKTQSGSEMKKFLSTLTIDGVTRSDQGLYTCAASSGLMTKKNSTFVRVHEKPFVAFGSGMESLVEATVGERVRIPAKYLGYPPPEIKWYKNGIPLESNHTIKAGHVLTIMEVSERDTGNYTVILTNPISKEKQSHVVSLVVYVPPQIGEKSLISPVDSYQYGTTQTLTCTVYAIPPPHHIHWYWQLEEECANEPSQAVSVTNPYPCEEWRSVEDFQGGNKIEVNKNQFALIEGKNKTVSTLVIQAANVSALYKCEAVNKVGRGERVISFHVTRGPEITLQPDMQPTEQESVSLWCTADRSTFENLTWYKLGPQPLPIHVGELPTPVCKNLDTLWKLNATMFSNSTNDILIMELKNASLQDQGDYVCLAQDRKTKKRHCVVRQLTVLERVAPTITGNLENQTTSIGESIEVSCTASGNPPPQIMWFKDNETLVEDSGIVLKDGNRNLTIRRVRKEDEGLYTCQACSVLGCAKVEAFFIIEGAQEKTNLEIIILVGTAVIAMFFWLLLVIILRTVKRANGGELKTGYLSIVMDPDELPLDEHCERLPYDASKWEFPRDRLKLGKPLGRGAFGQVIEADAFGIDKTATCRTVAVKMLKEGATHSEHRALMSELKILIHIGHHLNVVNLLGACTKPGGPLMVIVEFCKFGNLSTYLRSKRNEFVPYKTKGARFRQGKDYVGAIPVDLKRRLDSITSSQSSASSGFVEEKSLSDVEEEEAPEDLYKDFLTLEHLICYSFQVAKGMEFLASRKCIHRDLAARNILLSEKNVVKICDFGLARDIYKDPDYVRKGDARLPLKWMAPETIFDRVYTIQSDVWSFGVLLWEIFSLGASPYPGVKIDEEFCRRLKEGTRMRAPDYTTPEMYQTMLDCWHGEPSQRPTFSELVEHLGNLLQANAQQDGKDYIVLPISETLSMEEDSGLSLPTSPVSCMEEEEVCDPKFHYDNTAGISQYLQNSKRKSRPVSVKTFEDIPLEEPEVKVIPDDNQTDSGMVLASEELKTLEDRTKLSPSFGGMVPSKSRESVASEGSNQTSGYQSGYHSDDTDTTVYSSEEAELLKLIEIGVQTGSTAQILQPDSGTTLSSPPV

`C#CC(C)(O)COc1cc(-c2ccc(N3CC4CC(C3)N4Cc3ccc(OC)nc3)nc2)c2c(C#N)cnn2c1` (stereo not shown) [Embodiment 62, 6-((2-Hydroxy-2-methylbut-3-yn-1-yl)oxy)-4-(6-(6-((6-methoxypyridin-3-yl)methyl)-3,6-diazabicyclo[3.1.1]heptan-3-yl)pyridin-3-yl)pyrazolo[1,5-a]pyridine-3-carbonitrile]: in series [1], the mean residence time (MRT) is 4.07 h, the Cmax is 2820 ng/mL, the AUC(0-t) worked out at 13800 ng·h/mL and the AUC(0-inf) amounted to 13800 ng·h/mL. In series [1], the half-life was 2.4 h and the Tmax turned out to be 0.5 h. Moreover, at KDR kinase, half-maximal inhibition (IC50) was put at 35.2 nM and the “Ratio (KDR/RET)” value is listed as 73. In series [2] (10 mg/kg oral twice a day), the “Tumor volume (Mean ± SD) Day 0” value came out at 100.24 ± 27.85 mm^3, the “TGI (%) Day 14” value is recorded as 89.74% and the “Tumor volume (Mean ± SD) Day 14” value is on record as 247.52 ± 85.65 mm^3. Besides, inhibition against RET kinase was half-maximal at 0.48 nM (IC50).
As to `C#C[C@](C)(O)COc1cc(-c2ccc(N3CC4CC(C3)N4Cc3cnc(OC)c(F)c3)nc2)c2c(C#N)cnn2c1` [Embodiment 65, 4-(6-(6-((5-Fluoro-6-methoxypyridin-3-yl)methyl)-3,6-diazabicyclo[3.1.1]heptan-3-yl)pyridin-3-yl)-6-(((S)-2-hydroxy-2-methylbut-3-yn-1-yl)oxy)pyrazolo[1,5-a]pyridine-3-carbonitrile], in series [1], the MRT stood at 5.24 h, the Cmax stood at 2400 ng/mL, the AUC(0-t) was determined as 20200 ng·h/mL and the AUC(0-inf) stood at 20300 ng·h/mL. Also, in series [1], the half-life was 3.05 h and the time to peak (Tmax) came to 2 h. In addition, on KDR kinase, inhibition was half-maximal at 14.5 nM (IC50) and the “Ratio (KDR/RET)” value is 44. In series [2] (10 mg/kg oral twice a day), the “Tumor volume (Mean ± SD) Day 0” value came out at 100.40 ± 29.77 mm^3, the “TGI (%) Day 14” value is given as 87.71% and the “Tumor volume (Mean ± SD) Day 14” value stood at 276.69 ± 106.21 mm^3. Moreover, the IC50 in series [3] was determined as 12.7 nM. The same compound yielded an IC50 against RET kinase of 0.33 nM. For the same compound, the IC50 at Ba/F3 KIF5B-RET cells turned out to be 7.03 nM.
`CC1(NC(=O)c2ncccc2Cl)CCN(c2ccc(-c3cc(OCC4(C#N)CC4)cn4ncc(C#N)c34)cn2)CC1` [Embodiment 92, 3-Chloro-N-(1-(5-(3-cyano-6-((1-cyanocyclopropyl)methoxy)pyrazolo[1,5-a]pyridin-4-yl)pyridin-2-yl)-4-methylpiperidin-4-yl)picolinamide]: in series [1], the MRT was determined as 2.85 h, the Cmax was determined as 9340 ng/mL, the AUC(0-t) stood at 24500 ng·h/mL and the AUC(0-inf) is 24500 ng·h/mL. In series [1], the half-life was 1.7 h and the Tmax is 0.5 h. Further, on KDR kinase, the IC50 came to 185 nM and the “Ratio (KDR/RET)” value is on record as 218. In series [2] (30 mg/kg oral twice a day), the “Tumor volume (Mean ± SD) Day 0” value is 133.41 ± 18.82 mm^3, the “TGI (%) Day 14” value worked out at 126.35% and the “Tumor volume (Mean ± SD) Day 14” value was 98.26 ± 33.71 mm^3. In series [3], the IC50 is 27.4 nM. This compound displayed an IC50 against RET kinase of 0.85 nM. Further, the concentration for half-maximal inhibition (IC50) at Ba/F3 KIF5B-RET cells amounted to 32.1 nM.
`COc1ccc(CN2C3CC2CN(c2ccc(-c4cc(C#CC(C)(C)N)cn5ncc(C#N)c45)cn2)C3)cn1` [Embodiment 17, 6-(3-Amino-3-methylbut-1-yn-1-yl)-4-(6-(6-((6-methoxypyridin-3-yl)methyl)-3,6-diazabicyclo[3.1.1]heptan-3-yl)pyridin-3-yl)pyrazolo[1,5-a]pyridine-3-carbonitrile]: the half-inhibitory concentration (IC50) was found to be 0.38 nM at RET M918T, 8.2 nM at KDR kinase, 13.1 nM in series [3] and 0.39 nM at RET kinase. In addition, the “Ratio (KDR/RET)” value at KDR kinase worked out at 21.
On the same counts, the results for `CC(C)(O)C#Cc1cc(-c2ccc(N3CCC(C)(NC(=O)c4ncccc4Cl)CC3)nc2)c2c(C#N)cnn2c1` [Embodiment 85, 3-Chloro-N-(1-(5-(3-cyano-6-(3-hydroxy-3-methylbut-1-yn-1-yl)pyrazolo[1,5-a]pyridin-4-yl)pyridin-2-yl)-4-methylpiperidin-4-yl)picolinamide] are 0.79 nM, 46 nM, 9.44 nM, 0.38 nM and 122.
As to `COc1ccc(CN2C3CC2CN(c2ccc(-c4cc(C#CC(C)(C)O)cn5ncc(C#N)c45)cn2)C3)cn1` [Embodiment 8, 6-(3-Hydroxy-3-methylbut-1-yn-1-yl)-4-(6-(6-((6-methoxypyridin-3-yl)methyl)-3,6-diazabicyclo[3.1.1]heptan-3-yl)pyridin-3-yl)pyrazolo[1,5-a]pyridine-3-carbonitrile], in series [1], the MRT came out at 4.91 h, the Cmax stood at 3710 ng/mL, the AUC(0-t) was determined as 21400 ng·h/mL and the AUC(0-inf) worked out at 21500 ng·h/mL. In addition, in series [1], the half-life was 3.37 h and the Tmax was 0.5 h. The compound further showed a concentration for half-maximal inhibition (IC50) at RET M918T of 0.67 nM. For the same compound, on KDR kinase, the concentration for half-maximal inhibition (IC50) came to 16 nM and the “Ratio (KDR/RET)” value was 34. For the same compound, the 50% inhibitory concentration (IC50) in series [3] is 17 nM. This compound gave an IC50 at RET kinase of 0.48 nM. Moreover, at Ba/F3 KIF5B-RET cells, the IC50 turned out to be 12 nM.
On to `COc1ncc(CN2C3CC2CN(c2ccc(-c4cc(N5CC(C(C)(C)O)C5)cn5ncc(C#N)c45)cn2)C3)cc1F` [Embodiment 31, 4-(6-(6-((5-Fluoro-6-methoxypyridin-3-yl)methyl)-3,6-diazabicyclo[3.1.1]heptan-3-yl)pyridin-3-yl)-6-(3-(2-hydroxypropan-2-yl)azetidin-1-yl)pyrazolo[1,5-a]pyridine-3-carbonitrile], for which, in series [1], the MRT came to 4.71 h, the Cmax was determined as 3120 ng/mL, the AUC(0-t) was 18900 ng·h/mL and the AUC(0-inf) was found to be 18900 ng·h/mL. Besides, in series [1], the half-life is 2.66 h and the Tmax was 0.5 h. Besides, the IC50 at RET M918T worked out at 0.47 nM. Also, on KDR kinase, half-maximal inhibition (IC50) was put at 23 nM and the “Ratio (KDR/RET)” value is reported as 30. Moreover, the half-maximal inhibitory concentration (IC50) in series [3] was 6.59 nM. Also, the IC50 at RET kinase stood at 0.75 nM.
